In publication PMC3066540, “Molecular characterization of O-methyltransferases involved in isoquinoline alkaloid biosynthesis in Coptis japonica” (Proceedings of the Japan Academy. Series B, Physical and …, 2010):
Blank lines part the entries; values can stand above or below the molecule they belong to.

Legend:
64′-OMT [1] = test system: T1, 64′-OMT; experiment: [3H]methyl transfer assay, double-reciprocal plots with secondary replots; assay type: biochemical, Coptis japonica; details: 30 °C
T1 construct: gene 6-OMT; pET-21d, no vector-derived peptides, E. coli BL21(DE3), purified; subunit ca. 40 kDa, native ca. 63 kDa, dimer

6-OMT = biological target: T2, 6-OMT (Coptis japonica, UniProt Q9LEL6); experiment: LC/MS product analysis; assay type: biochemical; details: 1 mM acceptor, 1 mM AdoMet, pH 7.5, 30 °C; presumed 3'-O-methylation; crude E. coli lysate
T2 construct: full length, recombinant in E. coli, crude lysate; dimer

64′-OMT [2] = biological target: T1, 64′-OMT; experiment: [3H]methyl transfer assay, inhibition kinetics; assay type: biochemical, Coptis japonica; details: competitive with AdoMet; varied substrate AdoMet, methyl acceptor norlaudanosoline; 30 °C

T2 sequence (Q9LEL6 whole entry): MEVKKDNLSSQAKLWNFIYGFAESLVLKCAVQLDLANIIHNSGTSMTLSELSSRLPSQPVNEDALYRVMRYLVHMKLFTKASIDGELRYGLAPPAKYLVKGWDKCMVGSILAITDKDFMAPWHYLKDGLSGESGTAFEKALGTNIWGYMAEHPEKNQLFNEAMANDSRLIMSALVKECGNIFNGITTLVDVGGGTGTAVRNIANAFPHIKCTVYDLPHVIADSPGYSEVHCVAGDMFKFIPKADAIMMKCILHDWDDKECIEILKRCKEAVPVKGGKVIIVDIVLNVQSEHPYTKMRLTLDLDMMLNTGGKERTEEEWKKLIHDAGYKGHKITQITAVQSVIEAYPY

Structure (SMILES): Oc1ccc(CC2NCCc3cc(O)c(O)cc32)cc1O (racemic) [(R,S)-norlaudanosoline]
- Km (64′-OMT [1]; co-substrate [3H]AdoMet varied): 109 µM

Structure (SMILES): COc1cc2c(cc1O)[C@H](Cc1ccc(O)c(O)c1)N(C)CC2 [3′-hydroxy-N-methylcoclaurine]
- LC/MS product analysis (6-OMT): 6-OMT showed a weak but evident peak that was distinct

- Ki (64′-OMT [2]): 70 µM
Structure (SMILES): Nc1ncnc2c1ncn2[C@@H]1O[C@H](CSCC[C@H](N)C(=O)O)[C@@H](O)[C@H]1O [AdoHcy]

- Km (64′-OMT [1]; co-substrate (R,S)-norlaudanosoline varied, labelled compound): 187 µM
Structure (SMILES): C[S+](CC[C@H](N)C(=O)O)C[C@H]1O[C@@H](n2cnc3c(N)ncnc32)[C@H](O)[C@@H]1O (stereo partly shown) [AdoMet]
